Data on 9 molecules can be found in PubChem BioAssay (NCI).

Each structure is given as a SMILES string.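 Growth conditions: 96-well plates. Treatment: test compound, 48 hours, 5 concentrations. Analysis: linear interpolation between bracketing concentrations; unreached endpoints set to highest concentration. GI50 = concentration required for 50% inhibition of growth. TGI: total growth inhibition.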

Among the test systems are COLO 205 colon; LOX IMVI melanoma; 786-0 renal; ACHN renal; MDA-MB-231 breast; NCI-H522 lung; BT-549 breast; SR leukemia; HOP-92 NSCLC; MCF7 breast.
Assay in all cases: growth of human tumour cells (NCI), 48 h

`COc1cc(/C=C/c2cc(/C=C/c3ccc(O)c(OC)c3)n(C(=O)Nc3ccc(Cl)cc3)n2)ccc1O`: the GI50 was 1.95 µM with COLO 205 colon; 0.448 µM in the test on LOX IMVI melanoma; 0.515 µM in the test with 786-0 renal; 0.52 µM in the test on ACHN renal; 0.975 µM in the test with MDA-MB-231 breast; 0.215 µM in the test on NCI-H522 lung. Also, the GI50 is 0.885 µM in the test on BT-549 breast, 0.106 µM with SR leukemia, 2.14 µM in the test on HOP-92 NSCLC and 0.486 µM with MCF7 breast. Moreover, the TGI in the test with COLO 205 colon amounted to 3.43 µM; in the test with LOX IMVI melanoma, 2.26 µM; in the test with 786-0 renal, 1.85 µM; with ACHN renal, 11.4 µM; with MDA-MB-231 breast, 10.7 µM; with NCI-H522 lung it was 0.802 µM. The TGI was 3.51 µM in the test on BT-549 breast, 7.04 µM in the test with HOP-92 NSCLC and 3.39 µM in the test on MCF7 breast.
With `C[C@]12CCNC(=O)C=C1CC[C@@H]1C2CC[C@@]2(C)C1CC[C@@H]2OC(=O)COc1ccc(N(CCCl)CCCl)cc1` (some centres not stated), the TGI in the test with COLO 205 colon worked out at 23.9 µM; in the test with LOX IMVI melanoma, 22.8 µM; with 786-0 renal it was 3.19 µM; in the test with ACHN renal it was 11.2 µM; in the test with MDA-MB-231 breast, 34.8 µM; with NCI-H522 lung, 3.08 µM. Besides, the TGI in the test with BT-549 breast stood at 60.2 µM; in the test with SR leukemia it was 15.7 µM; in the test with HOP-92 NSCLC, 23.3 µM; in the test with MCF7 breast it was 14.8 µM.
For `CCOC(=O)c1cnn2c3ccccc3n(S(=O)(=O)c3ccc(OC)cc3)c12`, the GI50 was 0.289 µM with COLO 205 colon; 0.496 µM in the test with LOX IMVI melanoma; 0.666 µM with 786-0 renal; 0.811 µM in the test on ACHN renal; 0.889 µM in the test on MDA-MB-231 breast; 0.338 µM in the test with NCI-H522 lung. For the same molecule, the GI50 in the test with BT-549 breast is 0.34 µM; in the test with SR leukemia, 0.238 µM; in the test with HOP-92 NSCLC it was 0.67 µM; in the test with MCF7 breast, 0.0998 µM. The TGI in the test on COLO 205 colon is 1.08 µM; with LOX IMVI melanoma, greater than 61 µM; in the test on 786-0 renal, greater than 100 µM; in the test on ACHN renal, greater than 100 µM; with MDA-MB-231 breast it was greater than 100 µM; in the test on NCI-H522 lung, 38.8 µM. In addition, the TGI was 13.1 µM in the test on BT-549 breast, greater than 100 µM in the test on SR leukemia, 16 µM in the test with HOP-92 NSCLC and greater than 100 µM with MCF7 breast.
For the molecule `O=C1c2ccccc2C(=O)c2c(NCC3CO3)ccc(NCC3CO3)c21` (configuration not stated), the TGI in the test with COLO 205 colon was found to be 29.9 µM; with LOX IMVI melanoma, 0.0161 µM; in the test on 786-0 renal, 5.57 µM; in the test with ACHN renal, 2.62 µM; in the test on MDA-MB-231 breast it was 14.8 µM; with NCI-H522 lung, 20.1 µM. For the same molecule, the TGI is 14.1 µM with BT-549 breast, greater than 27.2 µM with SR leukemia, 38 µM in the test with HOP-92 NSCLC and 1.25 µM with MCF7 breast.
For the molecule `O=C1c2ccccc2C(=O)c2sc(Nc3ccccc3Cl)nc21`, the TGI worked out at 29 µM in the test on COLO 205 colon; 6.63 µM in the test with LOX IMVI melanoma; 27.9 µM in the test with 786-0 renal; 14.9 µM in the test on ACHN renal; 13.7 µM with MDA-MB-231 breast; 9.61 µM with NCI-H522 lung. Further, the TGI in the test on BT-549 breast is 29.5 µM; in the test with SR leukemia, 12.1 µM; in the test with HOP-92 NSCLC, 27.9 µM; with MCF7 breast it was 40.6 µM.
With `Cc1cc(Nc2cc(N3CCN(C)CC3)nc(Sc3ccc(NC(=O)C4CC4)cc3)n2)n[nH]1`, the GI50 in the test on COLO 205 colon was 0.0456 µM; in the test with LOX IMVI melanoma it was 0.424 µM; in the test with 786-0 renal it was greater than 10 µM; in the test on ACHN renal, greater than 10 µM; with MDA-MB-231 breast it was 3.98 µM; in the test on NCI-H522 lung, 4.16 µM. Also, the GI50 in the test with BT-549 breast was 5.89 µM; with SR leukemia, 0.0594 µM; with HOP-92 NSCLC, 0.989 µM; in the test with MCF7 breast, 0.492 µM. Also, the TGI is 7.32 µM in the test on COLO 205 colon; 3.87 µM with LOX IMVI melanoma; greater than 10 µM with 786-0 renal; greater than 10 µM in the test on ACHN renal; greater than 10 µM in the test with MDA-MB-231 breast; greater than 10 µM in the test on NCI-H522 lung. The TGI is greater than 10 µM with BT-549 breast, greater than 10 µM in the test with SR leukemia, 5.77 µM in the test on HOP-92 NSCLC and greater than 10 µM with MCF7 breast.
As for `O=C(/C=C/C12c3ccccc3C(c3ccccc31)C1C(=O)NC(=O)C12)c1ccc(Cl)cc1` (configuration not stated), the GI50 in the test on COLO 205 colon is 1.91 µM; with LOX IMVI melanoma, 1.6 µM; in the test on 786-0 renal, 1.73 µM; with ACHN renal it was 1.65 µM; in the test on MDA-MB-231 breast, 1.88 µM; in the test with NCI-H522 lung, 1.46 µM. The GI50 was 1.34 µM with BT-549 breast, 2.15 µM with SR leukemia, 1.32 µM with HOP-92 NSCLC and 1.34 µM in the test with MCF7 breast. Moreover, the TGI with COLO 205 colon was 3.77 µM; with LOX IMVI melanoma, 3 µM; in the test on 786-0 renal it was 3.16 µM; in the test on ACHN renal, 3.02 µM; in the test with MDA-MB-231 breast, 4.3 µM; in the test with NCI-H522 lung, 3.3 µM. Also, the TGI in the test on BT-549 breast was 2.69 µM; with SR leukemia it was greater than 100 µM; with HOP-92 NSCLC it was 2.86 µM; in the test with MCF7 breast it was 4.05 µM.
Turning to `CN(C)c1ccc(/C=c2/c3ccccc3n3c2c2cc(F)ccc2[n+]3C)cc1`, the GI50 was 2.15 µM in the test with COLO 205 colon; 11.7 µM in the test with LOX IMVI melanoma; 4.24 µM in the test on 786-0 renal; 34.6 µM with ACHN renal; 13.4 µM in the test with MDA-MB-231 breast; 4.57 µM in the test with NCI-H522 lung. Moreover, the GI50 with BT-549 breast is 2.65 µM; in the test on SR leukemia it was 0.0501 µM; in the test with HOP-92 NSCLC, 6.36 µM; in the test with MCF7 breast, 6.57 µM. Also, the TGI in the test on COLO 205 colon is 7.37 µM; in the test on LOX IMVI melanoma, greater than 100 µM; with 786-0 renal, 21 µM; in the test with ACHN renal, greater than 100 µM; with MDA-MB-231 breast, 34.5 µM; with NCI-H522 lung, greater than 41.1 µM. Further, the TGI in the test with BT-549 breast came to 13.1 µM; in the test on SR leukemia, 1.23 µM; in the test on HOP-92 NSCLC, 25.3 µM; with MCF7 breast, 32.1 µM.
As for `COc1ccc(Nc2nc3cc(N)cc(N)c3nc2-c2ccccc2)cc1OC`, the GI50 was 19.8 µM in the test with COLO 205 colon; 25.8 µM in the test with LOX IMVI melanoma; 23.8 µM with 786-0 renal; 27.4 µM in the test with ACHN renal; 4.92 µM in the test on MDA-MB-231 breast; 28.9 µM with NCI-H522 lung. For the same molecule, the GI50 in the test with BT-549 breast was 25.9 µM; in the test with SR leukemia, 2.67 µM; in the test on MCF7 breast it was 20.5 µM. Besides, the TGI in the test with COLO 205 colon is 41.2 µM; with LOX IMVI melanoma, 72.2 µM; in the test on 786-0 renal it was 90.3 µM; in the test on ACHN renal it was greater than 100 µM; in the test on MDA-MB-231 breast, 18.5 µM; in the test with NCI-H522 lung, greater than 100 µM. Also, the figures for the TGI in the test with BT-549 breast, with SR leukemia and in the test on MCF7 breast were 81.6 µM, 21.8 µM and 44.8 µM, respectively.
